Tests used:
[1] = system: patient with erosive hand osteoarthritis; test: Efficacy of topical treatment in one patient with erosive hand osteoarthritis (Example 6); assay type: in vivo, human; settings: 12 weeks
Protocol: After a wash-up period of several weeks, the patient started treatment with a topical formulation prepared as disclosed in example 3, with a dosage of about 10 mg daily per hand, spread on the affected zone for a period of 12 weeks.

patients aged ≥6 years = settings: for example 200 mg/daily; cited from earlier work
[2] = system: patients with erosive hand osteoarthritis; test: Clinical study of oral 20 mg montelukast daily in patients non-respondent to 10 mg (Example 5); assay type: in vivo, human
Protocol: For this study, 9 patients were selected from the previous study (Example 4) among those who were non-respondents to the treatment (10 mg montelukast daily).
In the present study, the patients were administered a daily dose of montelukast of 20 mg by the oral route, also using an orally dispersible composition prepared as disclosed in Example 1, according to a once-daily dosage regimen. The age of the patients ranged from 52 to 78 years.
As in the previous study, for assessing the efficacy in pain relief, the visual analogue scale (VAS) methodology was used, where the pain was assessed on a scale of 0 to 10.
For assessing the efficacy in hand functionality improvement, also a visual analogue scale (VAS) of 0 to 10 was also used, wherein 0 meant full functionality, i.e., full ability to hold objects, and 10 meant absence of functionality, i.e., inability to hold any object
The “initial” values mean the values before starting the treatment, and the “final” values mean the values after completing the treatment.

[3] = system: patients with erosive hand osteoarthritis; test: Clinical observational study of oral 10 mg montelukast daily in patients with erosive hand osteoarthritis (Example 4); assay type: in vivo, human; settings: 10 mg daily oral, 3 to 16 months
Protocol: A preliminary clinical observational study was performed in patients suffering from erosive hand osteoarthritis.
50 patients with erosive hand osteoarthritis which were non-respondent or with limited response after treatment with analgesics and/or anti-inflammatories were selected for the study. The patients were administered 10 mg of montelukast daily by the oral route, using an orally dispersible composition prepared as disclosed in Example 1, according to a once-daily dosage regimen.
The following parameters were used to evaluate the efficacy of the treatment: (i) improvement in clinical symptoms; (ii) efficacy in pain relief; and (iii) improvement in radiological evaluation. All assessments were focused on one of the hands of the patients.
The improvement in clinical symptoms was assessed by evaluating the improvement in symptoms such as functionality, stiffness and deformity of the affected hand that entail an improvement in the quality of life of the patients.
For assessing the efficacy in pain relief, the patients were asked to evaluate the pain they felt using the visual analogue scale (VAS) methodology, both before the treatment and at the end of the treatment period.
For assessing the efficacy of the treatment in the radiological parameters of the hand, the following features in the affected joints were evaluated: a) edema, b) subchondral erosions, c) synovitis and d) tenosynovitis. These features were radiologically assessed by means of posteroanterior radiographs of the hand, performed before and after the treatment period. The treatment was considered to provide radiological improvement if there was observable improvement in at least two of the assessed features and no worsening in the remaining features.

[4] = 20 mg daily oral, beginning vs end of treatment
[5] = topical gel of example 3, about 10 mg daily per hand

Compound: CCC(=O)O[C@]1(C(=O)COC(C)=O)CC[C@H]2[C@@H]3C[C@H](C)C4=CC(=O)C=C[C@]4(C)[C@H]3[C@@H](O)C[C@@]21C [methylprednisolone aceponate]
- radiological assessment ([1]; topical, once daily): progression of the disease
- pain score (VAS, 0-10 scale) remaining under treatment ([1]; topical, once daily, no improvement in pain relief): higher than 5

Compound: CC(C)(O)c1ccccc1CC[C@@H](SCC1(CC(=O)O)CC1)c1cccc(/C=C/c2ccc3ccc(Cl)cc3n2)c1 [montelukast, 2-[1-[[(1R)-1-[3-[(E)-2-(7-chloroquinolin-2-yl)ethenyl]phenyl]-3-[2-(2-hydroxypropan-2-yl)phenyl]propyl]sulfanylmethyl]cyclopropyl]acetic acid]
- adverse effects at high doses (patients aged ≥6 years): does not cause adverse effects
- proportion of patients not responding to 10 mg daily that showed pain relief ([2]; 20 mg daily oral): ~70%
- adverse effects reported ([2]; 20 mg daily oral, 9 patients): No adverse effects
- improvement in hand functionality ([2]; 20 mg daily oral, all patients): 35%
- pain relief in the responding patients ([2]; 20 mg daily oral, almost 70% of the patients): 55%
- final VAS hand functionality score, mean [2, 4]: 4.56±0.39
- final VAS pain score, mean [2, 4]: 3.89±0.54
- VAS hand functionality final, Min - Max ([2]; after completing 20 mg daily oral treatment, individual values): 3-6
- VAS pain final, Min - Max ([2]; after completing 20 mg daily oral treatment, individual values, scale 0 to 10): 1-6
- VAS hand functionality final, Mean ([2]; after completing 20 mg daily oral treatment, scale 0 (full functionality) to 10 (absence)): 4.56
- VAS pain final, Mean ([2]; after completing 20 mg daily oral treatment, scale 0 to 10, 9 patients): 3.89
- VAS hand functionality initial, Min - Max ([2]; before starting 20 mg daily oral treatment (baseline), individual values): 5-8
- VAS pain initial, Min - Max ([2]; before starting 20 mg daily oral treatment (baseline), individual values, scale 0 to 10): 5-9
- VAS hand functionality initial, Mean ([2]; before starting 20 mg daily oral treatment (baseline), scale 0 (full functionality) to 10 (absence)): 7.00
- VAS pain initial, Mean ([2]; before starting 20 mg daily oral treatment (baseline), scale 0 to 10, 9 patients): 7.00
- additional patients with no worsening of the assessed radiological parameters [3]: 10 patients
- patients with improvement after radiological evaluation (at least two features improved, none worse) ([3]; of 50 patients, posteroanterior radiographs): 28 patients
- patients reporting effective pain relief (VAS reduction of at least 2 units on 0 to 10 scale) ([3]; out of 45 patients with pain before treatment): 28 patients
- patients with improvement in edema ([3]; radiological evaluation): 19 patients
- patients with improvement in erosions ([3]; radiological evaluation): 14 patients
- patients with improvement in synovitis ([3]; radiological evaluation): 28 patients
- patients with improvement in tenosynovitis ([3]; radiological evaluation): 18 patients
- patients with improvement in clinical symptoms (functionality, stiffness, deformity) ([3]; once-daily, of 50 patients): 32 patients
- clinical symptoms of osteoarthritis [1, 5]: improvement in the clinical symptoms
- pain relief [1, 5]: significant pain relief

— patent US12539296B2, “Montelukast for the treatment of erosive hand osteoarthritis” (MMC INTELLECTUAL PROPERTY INSTITUTE, S.L., priority 2018, dated 2026)
